The OligoGym collection
Values joined by “and” are separate entries in the source; they are usually repeats but may differ in a detail not shown here. Equal entries are not always repeated. After the bases stand the sugars from the 5' end (letter, count) and the backbone: PS all phosphorothioate, else s phosphorothioate and o phosphodiester by linkage. HELM strings list units from the 5' end as sugar, base in round brackets, then linkage (d deoxyribose, r ribose, m 2'-O-methyl, p phosphodiester). Methylation of C is not given here. [moe] = 2'-O-(2-methoxyethyl) (MOE); [cEt] = constrained ethyl (cEt); [sp] = phosphorothioate linkage; e = 2'-O-(2-methoxyethyl) (MOE); k = constrained ethyl (cEt); d = 2'-deoxy (DNA)

Experiments:
KRAS = conditions: ASO
HBV = conditions: ASO, HepG2, 0.07 µM

AAAAATTAATGTCTTG (sugars k3 d10 k3, PS) showed a target mRNA inhibition (KRAS; A431, 2 µM) of 20%.
For AAAAGCTATTAGGAGT (sugars k3 d10 k3, PS), the target mRNA inhibition (KRAS; A431, 2 µM) was 25%.
Substance AAATTAGTGATTAGGT (sugars k3 d10 k3, PS) has a target mRNA inhibition (KRAS; A431, 2 µM) of 5%.
With AACCATTCAAAGTTCA (sugars k3 d10 k3, PS) the target mRNA inhibition (KRAS; A431, 2 µM) was 35%.
With AACGAGAATGGATATT (sugars k3 d10 k3, PS) the target mRNA inhibition (KRAS; A431, 2 µM) was 4%.
For AAGGTAAAAGCTAACA (sugars k3 d10 k3, PS), the target mRNA inhibition (KRAS; A431, 2 µM) was 21%.
Work on AAGTGTTTATGCAATG (sugars k3 d10 k3, PS) yielded a target mRNA inhibition (KRAS; A431, 2 µM) of 45%.
In the case of AATAGTTTCCATTGCC (sugars k3 d10 k3, PS), the target mRNA inhibition (KRAS; A431, 2 µM) is reported as 56%.
With AATGTCACAAGCAGAA (sugars k3 d10 k3, PS) the target mRNA inhibition (KRAS; A431, 2 µM) was 49%.
Work on AATTAATGTCTTGGCA (sugars k3 d10 k3, PS) yielded a target mRNA inhibition (KRAS; A431, 2 µM) of 12%.
With ACAGATTGTGCTGAGC (sugars k3 d10 k3, PS) the target mRNA inhibition (KRAS; A431, 2 µM) was 46%.
“ACCAGTGTTAAGAGAA (sugars kkddddddddkekekk, PS)” gave a target mRNA inhibition (KRAS; A431, 2 µM) of 52%.
Substance “ACCATTCAAAGTTCAC (sugars k3 d9 k3 e1, PS)” has a target mRNA inhibition (KRAS; A431, 2 µM) of 42%.
ACGAGAATGGATATTC (sugars k3 d10 k3, PS) was tested, and the target mRNA inhibition (KRAS; A431, 2 µM) was 29%.
ACTAATAGCAGTGGAA (sugars k3 d10 k3, PS) showed a target mRNA inhibition (KRAS; A431, 2 µM) of 27%.
Substance AGATATCCACAGCAGC (sugars k3 d10 k3, PS) has a target mRNA inhibition (KRAS; A431, 2 µM) of 58%.
For AGATGGTGTAACATAG (sugars k3 d10 k3, PS), the target mRNA inhibition (KRAS; A431, 2 µM) was 39%.
With “AGATTGTGCTGAGCTT (sugars k3 d9 k3 e1, PS)” the target mRNA inhibition (KRAS; A431, 2 µM) was 42%.
With “AGATTGTGCTGAGCTT (sugars kddddddddddkekek, PS)” the target mRNA inhibition (KRAS; A431, 2 µM) was 7%.
AGCTTGATCGAAGAGT (sugars k3 d10 k3, PS) gave a target mRNA inhibition (KRAS; A431, 5 µM) of 50%.
AGGAGTCTTTATAGTA (sugars k3 d10 k3, PS) gave a target mRNA inhibition (KRAS; A431, 0.185 µM) of 14%, a target mRNA inhibition (KRAS; A431, 0.556 µM) of 42% and a target mRNA inhibition (KRAS; A431, 1.667 µM) of 58%. For the same substance, the target mRNA inhibition (KRAS; A431, 2 µM) was 66% and 65% and 57% and the target mRNA inhibition (KRAS; A431, 5 µM) was 77%.
For “AGGAGTCTTTATAGTA (sugars kkddddddddkekekk, PS)”, the target mRNA inhibition (KRAS; A431, 2 µM) was 21%.
With “RNA1{[moe](G)[sp].[moe](T)[sp].[moe](G)[sp].[moe](C)[sp].d(A)[sp].d(G)[sp].d(A)[sp].d(G)[sp].d(G)[sp].d(T)[sp].d(G)[sp].d(A)[sp].d(A)[sp].[moe](G)[sp].[moe](C)[sp].[moe](G)}$$$$V2.0” the target mRNA inhibition (HBV) was 64% and 63%.
For “RNA1{[moe](G)[sp].[moe](T)[sp].[moe](G)[sp].d(C)[sp].d(A)[sp].d(G)[sp].d(A)[sp].d(G)[sp].d(G)[sp].d(T)[sp].d(G)[sp].d(A)[sp].d(A)[sp].[cEt](G)[sp].[cEt](C)[sp].[cEt](G)}$$$$V2.0”, the target mRNA inhibition (HBV) was 78% and 74%.
For “RNA1{[moe](G)[sp].[moe](T)[sp].[moe](T)[sp].[moe](C)[sp].[moe](C)[sp].[moe](G)[sp].d(C)[sp].d(A)[sp].d(G)[sp].d(T)[sp].d(A)[sp].d(T)[sp].d(G)[sp].d(G)[sp].d(A)[sp].[moe](T)[sp].[moe](C)}$$$$V2.0”, the target mRNA inhibition (HBV) was 74% and 57%.
With “RNA1{[moe](G)[sp].[moe](T)[sp].d(G)[sp].d(A)[sp].d(A)[sp].d(G)[sp].d(C)[sp].d(G)[sp].d(A)[sp].d(A)[sp].d(G)[sp].[moe](T)[sp].[moe](G)[sp].[moe](C)[sp].[moe](A)[sp].[moe](C)[sp].[moe](A)}$$$$V2.0” the target mRNA inhibition (HBV) was 73% and 68%.
“RNA1{[moe](G)[sp].[moe](T)[sp].d(G)[sp].d(C)[sp].d(A)[sp].d(G)[sp].d(A)[sp].d(G)[sp].d(G)[sp].d(T)[sp].d(G)[sp].[moe](A)[sp].[moe](A)[sp].[moe](G)[sp].[moe](C)[sp].[moe](G)}$$$$V2.0” was tested, and the target mRNA inhibition (HBV) was 53% and 42%.
With “RNA1{[moe](T)[sp].[cEt](A)[sp].[cEt](T)[sp].d(G)[sp].d(C)[sp].d(C)[sp].d(T)[sp].d(A)[sp].d(C)[sp].d(A)[sp].d(G)[sp].d(C)[sp].d(C)[sp].[cEt](T)[sp].[cEt](C)[sp].[moe](C)}$$$$V2.0” the target mRNA inhibition (HBV) was 55% and 36%.
“RNA1{[moe](T)[sp].[cEt](G)[sp].d(A)[sp].d(G)[sp].d(A)[sp].d(G)[sp].d(A)[sp].d(A)[sp].d(G)[sp].d(T)[sp].d(C)[sp].d(C)[sp].[cEt](A)[sp].[moe](C)[sp].[cEt](C)[sp].[moe](A)}$$$$V2.0” was tested, and the target mRNA inhibition (HBV) was 60% and 43%.
“RNA1{[moe](T)[sp].[cEt](G)[sp].d(A)[sp].d(G)[sp].d(G)[sp].d(C)[sp].d(A)[sp].d(T)[sp].d(A)[sp].d(G)[sp].d(C)[sp].d(A)[sp].[cEt](G)[sp].[moe](C)[sp].[cEt](A)[sp].[moe](G)}$$$$V2.0” was tested, and the target mRNA inhibition (HBV) was 69% and 75%.
For “RNA1{[moe](T)[sp].[cEt](T)[sp].[cEt](C)[sp].d(C)[sp].d(G)[sp].d(C)[sp].d(A)[sp].d(G)[sp].d(T)[sp].d(A)[sp].d(T)[sp].d(G)[sp].d(G)[sp].[cEt](A)[sp].[cEt](T)[sp].[moe](C)}$$$$V2.0”, the target mRNA inhibition (HBV) was 47% and 61%.
For “RNA1{[moe](T)[sp].[cEt](T)[sp].[cEt](T)[sp].d(A)[sp].d(T)[sp].d(G)[sp].d(C)[sp].d(C)[sp].d(T)[sp].d(A)[sp].d(C)[sp].d(A)[sp].d(G)[sp].[cEt](C)[sp].[cEt](C)[sp].[moe](T)}$$$$V2.0”, the target mRNA inhibition (HBV) was 55% and 49%.
In the case of “RNA1{[moe](T)[sp].[moe](A)[sp].[moe](T)[sp].[moe](G)[sp].d(C)[sp].d(C)[sp].d(T)[sp].d(A)[sp].d(C)[sp].d(A)[sp].d(G)[sp].d(C)[sp].d(C)[sp].[moe](T)[sp].[moe](C)[sp].[moe](C)}$$$$V2.0”, the target mRNA inhibition (HBV) is reported as 33% and 42%.
“RNA1{[moe](T)[sp].[moe](A)[sp].[moe](T)[sp].d(G)[sp].d(C)[sp].d(C)[sp].d(T)[sp].d(A)[sp].d(C)[sp].d(A)[sp].d(G)[sp].d(C)[sp].d(C)[sp].[cEt](T)[sp].[cEt](C)[sp].[cEt](C)}$$$$V2.0” was tested, and the target mRNA inhibition (HBV) was 39% and 45%.
In the case of “RNA1{[moe](T)[sp].[moe](A)[sp].d(T)[sp].d(G)[sp].d(C)[sp].d(C)[sp].d(T)[sp].d(A)[sp].d(C)[sp].d(A)[sp].d(G)[sp].[moe](C)[sp].[moe](C)[sp].[moe](T)[sp].[moe](C)[sp].[moe](C)}$$$$V2.0”, the target mRNA inhibition (HBV) is reported as 54% and 55%.
With “RNA1{[moe](T)[sp].[moe](G)[sp].[moe](A)[sp].[moe](A)[sp].d(G)[sp].d(C)[sp].d(G)[sp].d(A)[sp].d(A)[sp].d(G)[sp].d(T)[sp].d(G)[sp].d(C)[sp].[moe](A)[sp].[moe](C)[sp].[moe](A)[sp].[moe](C)}$$$$V2.0” the target mRNA inhibition (HBV) was 62% and 51%.
In the case of “RNA1{[moe](T)[sp].[moe](G)[sp].[moe](A)[sp].[moe](A)[sp].d(G)[sp].d(C)[sp].d(G)[sp].d(A)[sp].d(A)[sp].d(G)[sp].d(T)[sp].d(G)[sp].d(C)[sp].[moe](A)[sp].[moe](C)[sp].[moe](A)}$$$$V2.0”, the target mRNA inhibition (HBV) is reported as 43% and 52%.
“RNA1{[moe](T)[sp].[moe](G)[sp].[moe](A)[sp].[moe](G)[sp].[moe](G)[sp].d(C)[sp].d(A)[sp].d(T)[sp].d(A)[sp].d(G)[sp].d(C)[sp].d(A)[sp].d(G)[sp].d(C)[sp].[moe](A)[sp].[moe](G)}$$$$V2.0” was tested, and the target mRNA inhibition (HBV) was 48% and 51%.
With “RNA1{[moe](T)[sp].[moe](G)[sp].[moe](A)[sp].[moe](G)[sp].d(G)[sp].d(C)[sp].d(A)[sp].d(T)[sp].d(A)[sp].d(G)[sp].d(C)[sp].d(A)[sp].d(G)[sp].[moe](C)[sp].[moe](A)[sp].[moe](G)[sp].[moe](G)}$$$$V2.0” the target mRNA inhibition (HBV) was 38% and 40%.
For “RNA1{[moe](T)[sp].[moe](G)[sp].[moe](A)[sp].[moe](G)[sp].d(G)[sp].d(C)[sp].d(A)[sp].d(T)[sp].d(A)[sp].d(G)[sp].d(C)[sp].d(A)[sp].d(G)[sp].[moe](C)[sp].[moe](A)[sp].[moe](G)}$$$$V2.0”, the target mRNA inhibition (HBV) was 56% and 53%.
In the case of “RNA1{[moe](T)[sp].[moe](G)[sp].[moe](A)[sp].d(G)[sp].d(G)[sp].d(C)[sp].d(A)[sp].d(T)[sp].d(A)[sp].d(G)[sp].d(C)[sp].d(A)[sp].d(G)[sp].[cEt](C)[sp].[cEt](A)[sp].[cEt](G)}$$$$V2.0”, the target mRNA inhibition (HBV) is reported as 59% and 61%.
With “RNA1{[moe](T)[sp].[moe](G)[sp].[moe](C)[sp].[moe](A)[sp].[moe](G)[sp].d(A)[sp].d(G)[sp].d(G)[sp].d(T)[sp].d(G)[sp].d(A)[sp].d(A)[sp].d(G)[sp].d(C)[sp].[moe](G)[sp].[moe](A)[sp].[moe](A)}$$$$V2.0” the target mRNA inhibition (HBV) was 55% and 56%.
In the case of “RNA1{[moe](T)[sp].[moe](G)[sp].[moe](C)[sp].[moe](A)[sp].d(G)[sp].d(A)[sp].d(G)[sp].d(G)[sp].d(T)[sp].d(G)[sp].d(A)[sp].d(A)[sp].d(G)[sp].[moe](C)[sp].[moe](G)[sp].[moe](A)[sp].[moe](A)}$$$$V2.0”, the target mRNA inhibition (HBV) is reported as 68% and 58%.
For “RNA1{[moe](T)[sp].[moe](G)[sp].[moe](C)[sp].[moe](A)[sp].d(G)[sp].d(A)[sp].d(G)[sp].d(G)[sp].d(T)[sp].d(G)[sp].d(A)[sp].d(A)[sp].d(G)[sp].[moe](C)[sp].[moe](G)[sp].[moe](A)}$$$$V2.0”, the target mRNA inhibition (HBV) was 60% and 68%.
“RNA1{[moe](T)[sp].[moe](G)[sp].d(A)[sp].d(G)[sp].d(G)[sp].d(C)[sp].d(A)[sp].d(T)[sp].d(A)[sp].d(G)[sp].d(C)[sp].[moe](A)[sp].[moe](G)[sp].[moe](C)[sp].[moe](A)[sp].[moe](G)[sp].[moe](G)}$$$$V2.0” was tested, and the target mRNA inhibition (HBV) was 73% and 72%.
In the case of “RNA1{[moe](T)[sp].[moe](T)[sp].[moe](C)[sp].[moe](C)[sp].[moe](G)[sp].d(C)[sp].d(A)[sp].d(G)[sp].d(T)[sp].d(A)[sp].d(T)[sp].d(G)[sp].d(G)[sp].d(A)[sp].[moe](T)[sp].[moe](C)}$$$$V2.0”, the target mRNA inhibition (HBV) is reported as 59% and 58%.
“RNA1{[moe](T)[sp].[moe](T)[sp].[moe](T)[sp].[moe](A)[sp].[moe](T)[sp].d(G)[sp].d(C)[sp].d(C)[sp].d(T)[sp].d(A)[sp].d(C)[sp].d(A)[sp].d(G)[sp].d(C)[sp].[moe](C)[sp].[moe](T)}$$$$V2.0” was tested, and the target mRNA inhibition (HBV) was 53% and 37%.
“RNA1{[moe](T)[sp].[moe](T)[sp].[moe](T)[sp].d(A)[sp].d(T)[sp].d(G)[sp].d(C)[sp].d(C)[sp].d(T)[sp].d(A)[sp].d(C)[sp].d(A)[sp].[moe](G)[sp].[moe](C)[sp].[moe](C)[sp].[moe](T)}$$$$V2.0” was tested, and the target mRNA inhibition (HBV) was 51% and 38%.
